“And” between values parts separate entries of the source, which are not always exact repeats. Identical values can stand only once. Toxic doses and inconclusive results are not listed. Cut-off read from the data, not from the text of the source: active = T/C of 150% or more; inactive = T/C below 125%.
Tested on: L1210 leukemia ip in BDF1 mice, survival T/C
Assay: NCI In Vivo Anticancer Drug Screen. Data for tumor model L1210 Leukemia (intraperitoneal) in B6D2F1 (BDF1) mice
Conditions: endpoint: mean survival time, higher = longer survival
How it was run: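 Each compound was tested against a transplantable tumor grown in mice. The endpoint was survival, with treated animals benchmarked against vehicle controls as a simple ratio.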

[1] = dose: 100.0 mg/kg/injection, schedule: Q01DX001 (ip), vehicle: saline
[2] = dose: 200.0 mg/kg/injection, schedule: Q01DX001 (ip), vehicle: saline
[3] = dose: 100.0 mg/kg/injection, schedule: Q04DX003 (ip), vehicle: saline with Tween-80
[4] = dose: 200.0 mg/kg/injection, schedule: Q04DX003 (ip), vehicle: saline with Tween-80
[5] = dose: 400.0 mg/kg/injection, schedule: Q04DX003 (ip), vehicle: saline with Tween-80
[6] = dose: 100.0 mg/kg/injection, schedule: Q01DX001 (ip), vehicle: Klucel (hydroxypropylcellulose) (HPC)
[7] = dose: 200.0 mg/kg/injection, schedule: Q01DX001 (ip), vehicle: Klucel (hydroxypropylcellulose) (HPC)
[8] = dose: 75.0 mg/kg/injection, schedule: Q01DX001 (ip), vehicle: saline
[9] = dose: 150.0 mg/kg/injection, schedule: Q01DX001 (ip), vehicle: saline

Measured: T/C

Cc1cc(C(=O)O)c(C)c2c1sc1ccccc12
inactive: [1] 87 % of control | [2] 107 % of control

CCOc1ccc(OCC)c(NC(=O)c2ccccc2)c1
inactive: [3] 94 % of control | [4] 92 % of control | [5] 95 % of control

NC(=O)c1ccc[n+](CC(=O)Nc2ccccc2)c1
inactive: [3] 101 % of control | [4] 97 % of control | [5] 95 % of control

CCCCC(CC)COP(OCC(CC)CCCC)OCC(CC)CCCC (stereo not drawn)
inactive: [3] 96 % of control | [4] 100 % of control | [5] 96 % of control

CCCCCCCCCCSCCSCCCCCCCCCC
inactive: dose: 100.0 mg/kg/injection, schedule: Q01DX001 (ip), vehicle: carboxymethylcellulose (CMC) 95 % of control | [3] 96 % of control | dose: 200.0 mg/kg/injection, schedule: Q01DX001 (ip), vehicle: carboxymethylcellulose (CMC) 101 % of control | [4] 93 % of control | dose: 400.0 mg/kg/injection, schedule: Q01DX001 (ip), vehicle: carboxymethylcellulose (CMC) 95 % of control | [5] 89 % of control

N#CC(/C=C/c1ccccc1)NCC(O)c1ccccc1 (stereo not drawn)
inactive: dose: 100.0 mg/kg/injection, schedule: Q01DX009 (ip), vehicle: saline sonified 95 % of control | dose: 200.0 mg/kg/injection, schedule: Q01DX009 (ip), vehicle: saline sonified 95 % of control | dose: 400.0 mg/kg/injection, schedule: Q01DX009 (ip), vehicle: saline sonified 95 % of control

NC(CCSCc1ccccc1)C(=O)O (stereo not drawn)
inactive: dose: 12.5 mg/kg/injection, schedule: Q04DX002 (ip), vehicle: Klucel (hydroxypropylcellulose) (HPC) 107 % of control | dose: 25.0 mg/kg/injection, schedule: Q04DX002 (ip), vehicle: Klucel (hydroxypropylcellulose) (HPC) 97 % of control | dose: 50.0 mg/kg/injection, schedule: Q04DX002 (ip), vehicle: Klucel (hydroxypropylcellulose) (HPC) 97 % of control | dose: 100.0 mg/kg/injection, schedule: Q04DX002 (ip), vehicle: Klucel (hydroxypropylcellulose) (HPC) 113 % of control | dose: 200.0 mg/kg/injection, schedule: Q04DX002 (ip), vehicle: Klucel (hydroxypropylcellulose) (HPC) 98 % of control | dose: 400.0 mg/kg/injection, schedule: Q04DX002 (ip), vehicle: Klucel (hydroxypropylcellulose) (HPC) 98 % of control

O=C(c1ccco1)c1cc(Cl)c(Cl)cc1Cl
inactive: dose: 100.0 mg/kg/injection, schedule: Q01DX001 (ip), vehicle: saline with Tween-80 100 % of control | dose: 200.0 mg/kg/injection, schedule: Q01DX001 (ip), vehicle: saline with Tween-80 95 % of control | dose: 400.0 mg/kg/injection, schedule: Q01DX001 (ip), vehicle: saline with Tween-80 98 % of control

O=C(O)c1c(Br)c(Br)c(Br)c(Br)c1C(=O)Nc1cccc(C(F)(F)F)c1
inactive: dose: 100.0 mg/kg/injection, schedule: Q01DX009 (ip), vehicle: Klucel (hydroxypropylcellulose) (HPC) 107 % of control | dose: 200.0 mg/kg/injection, schedule: Q01DX009 (ip), vehicle: Klucel (hydroxypropylcellulose) (HPC) 108 % of control | dose: 400.0 mg/kg/injection, schedule: Q01DX009 (ip), vehicle: Klucel (hydroxypropylcellulose) (HPC) 107 % of control

CNc1nnnn1-c1ccccc1C
inactive: [6] 93 % of control | [7] 98 % of control | dose: 400.0 mg/kg/injection, schedule: Q01DX001 (ip), vehicle: Klucel (hydroxypropylcellulose) (HPC) 105 % of control

CNC(=O)OCC1=C(OC)C(=O)C(OC)=CC1=O
inactive: dose: 12.5 mg/kg/injection, schedule: Q01DX009 (ip), vehicle: other 90 % of control | dose: 12.5 mg/kg/injection, schedule: Q04DX003 (ip), vehicle: other 97 % of control | dose: 25.0 mg/kg/injection, schedule: Q01DX009 (ip), vehicle: other 92 % of control | dose: 25.0 mg/kg/injection, schedule: Q04DX003 (ip), vehicle: other 96 % of control | dose: 50.0 mg/kg/injection, schedule: Q01DX009 (ip), vehicle: other 90 % of control | dose: 50.0 mg/kg/injection, schedule: Q04DX003 (ip), vehicle: other 100 % of control

NNC(=O)CCc1ccccc1[N+](=O)[O-]
inactive: dose: 40.0 mg/kg/injection, schedule: Q04DX003 (ip), vehicle: saline 108 % of control | [8] 93 % of control | dose: 75.0 mg/kg/injection, schedule: Q04DX003 (ip), vehicle: saline 98 % of control | [9] 96 % of control | dose: 150.0 mg/kg/injection, schedule: Q04DX003 (ip), vehicle: saline 101 % of control

NC(=S)N/N=C\c1nccc2c(C(=O)O)cccc12
inactive: dose: 100.0 mg/kg/injection, schedule: Q04DX002 (ip), vehicle: saline 106 % of control | dose: 200.0 mg/kg/injection, schedule: Q04DX002 (ip), vehicle: saline 106 % of control

c1ccc2c3c([nH]c2c1)C1CC2CCCCC2CN1CC3 (stereo not drawn)
inactive: [8] 107 % of control | [9] 109 % of control

CCC1(OC(C)=O)C(=O)OCc2c1cc1n(c2=O)Cc2cc3ccccc3nc2-1 (stereo not drawn)
inactive: dose: 0.13 mg/kg/injection, schedule: Q01DX009 (ip), vehicle: carboxymethylcellulose (CMC) 96 % of control | dose: 0.13 mg/kg/injection, schedule: Q01DX Z (ip), vehicle: water 93 % of control | dose: 0.22 mg/kg/injection, schedule: Q01DX Z (ip), vehicle: water 116 % of control | dose: 0.25 mg/kg/injection, schedule: Q01DX009 (ip), vehicle: carboxymethylcellulose (CMC) 96 % of control | dose: 0.36 mg/kg/injection, schedule: Q01DX Z (ip), vehicle: water 108 % of control | dose: 0.5 mg/kg/injection, schedule: Q01DX009 (ip), vehicle: carboxymethylcellulose (CMC) 91 % of control | dose: 1.0 mg/kg/injection, schedule: Q01DX009 (ip), vehicle: carboxymethylcellulose (CMC) 104 % of control | dose: 1.0 mg/kg/injection, schedule: Q01DX Z (ip), vehicle: water 114 % of control | dose: 2.0 mg/kg/injection, schedule: Q01DX009 (ip), vehicle: carboxymethylcellulose (CMC) 91 % of control

C/C=C(\CC)C1(C(C)C)C(=O)NC(=O)NC1=O
inactive: [8] 91 % of control

C#CCC(B1OCCO1)B1OCCO1
inactive: dose: 50.0 mg/kg/injection, schedule: Q01DX001 (ip), vehicle: Klucel (hydroxypropylcellulose) (HPC) 97 % of control | [6] 90 % of control | [7] 100 % of control

CC[N+](C)(CC)CCC[n+]1c(-c2ccccc2)c2cc(N)ccc2c2ccc(N)cc21
inactive: dose: 1.56 mg/kg/injection, schedule: Q01DX009 (ip), vehicle: saline 104 % of control | dose: 1.56 mg/kg/injection, schedule: Q04DX003 (ip), vehicle: saline 100 % of control | dose: 3.12 mg/kg/injection, schedule: Q01DX009 (ip), vehicle: saline 109 % of control and 110 % of control | dose: 3.12 mg/kg/injection, schedule: Q04DX003 (ip), vehicle: saline 109 % of control | dose: 6.25 mg/kg/injection, schedule: Q01DX009 (ip), vehicle: saline 100 % of control and 110 % of control | dose: 6.25 mg/kg/injection, schedule: Q04DX003 (ip), vehicle: saline 112 % of control | dose: 6.25 mg/kg/injection, schedule: Q04DX003 (ip), vehicle: water 98 % of control | dose: 12.5 mg/kg/injection, schedule: Q04DX003 (ip), vehicle: water 93 % of control

O=C(O)C1(Br)CC2CC1C1C2C2(Cl)C(Cl)=C(Cl)C1(Cl)C2(Cl)Cl (stereo not drawn)
inactive: dose: 75.0 mg/kg/injection, schedule: Q01DX001 (ip), vehicle: other 96 % of control | dose: 150.0 mg/kg/injection, schedule: Q01DX001 (ip), vehicle: other 96 % of control | dose: 300.0 mg/kg/injection, schedule: Q01DX001 (ip), vehicle: other 96 % of control

O=c1cc(/C=N\Nc2ccc([N+](=O)[O-])cc2)[nH]c(=O)[nH]1
inactive: dose: 50.0 mg/kg/injection, schedule: Q01DX001 (ip), vehicle: saline 106 % of control | [1] 95 % of control | [2] 101 % of control | dose: 400.0 mg/kg/injection, schedule: Q01DX001 (ip), vehicle: saline 90 % of control

Reference: PubChem BioAssay AID248 (DTP/NCI, 2004)
